According to patent US7989420B2, “Smooth muscle relaxation” (New York Medical College, priority 2006, dated 2011):

Experiments:
bovine airways = experiment: Superoxide detection by lucigenin chemiluminescence in bovine airways; format: cell-based; conditions: 10 μM PDBu for 30 minutes
Method: Bovine bronchi were isolated from the same lungs used for pulmonary arteries, and studied for changes in protoporphyrin IX fluorescence and force under the same conditions as bovine pulmonary arteries described above. Superoxide was detected by the chemiluminescence produced by 5 μM lucigenin, which was detected by photon counting in a scintillation counter.

[1] = system: bovine pulmonary arteries (BPA); experiment: Protoporphyrin IX-associated tissue fluorescence in organ cultured BPA rings; format: cell-based
Method: (§1) Organoid Culture Isolated Arteries for Heme Modulation. Intralobar BPA were isolated from slaughterhouse-derived bovine calf lungs, cleaned from surrounding tissue, and placed in 37° C. Dulbecco's Modified Eagle Medium (DMEM) containing 10% fetal bovine serum, penicillin, streptomycin, and fungizone (complete media). The arteries were isolated and cut into rings ˜2 mm in diameter and width, and the endothelium was removed by gentle rubbing of the lumen. Various compounds (i.e. ALA, FeSO4(Fe), deferoxamine) were added as described in the Results to various experimental groups, and these arteries were organ cultured overnight for 24 h in complete media in a 37° C.-5% CO2 incubator. Preliminary experiments on the time course for detection protoporphyrin IX accumulation and the effects of organ culture with doses of ALA in the 10-100 μM concentration range on contractile function, and minimizing the duration of organ culture were considerations that contributed to selecting the 24 h culture period used in this study.
Determination Changes in Protoporphyrin 1× and Heme Levels. Methods for the detection of protoporphyrin IX tissue fluorescence developed for the detection in cancerous cells with tissue depths of up to several millimeters (27) were adapted for detecting changes in the endogenous levels of protoporphyrin IX in BPA rings which were organ cultured with ALA. When excited with light in the regions of 505 and 540 nm, protoporphyrin IX has an emission in the region of 635 nm. […] Increases in protoporphyrin IX were measured using an excitation wavelength of 528±20 nm and emission of 620±40 nm in intact vessels. Ring segments of approximately equal size (˜4 mm in diameter and length) were centered on the bottom of the ˜6 mm diameter wells of a 96 well microplate with 200 μl of Krebs containing with 10 mM Hepes buffer (pH 7.4), and the fluorescence was measured from the bottom surface of the plate using BIOTEK fluorescent microplate reader (Model FLx800i). Data are reported in the arbitrary fluorescence units measured (AU), after subtraction of the low levels of background fluorescence observed in the absence of BPA.

[2] = system: bovine pulmonary arteries (BPA); experiment: Isometric force generation to serotonin (5-HT) in organ cultured BPA rings; format: cell-based
Method: as §1
Studies on the Regulation of Contractile Function. Following the overnight incubation, arterial rings were mounted on wire hooks attached to Grass (FT03) force displacement transducers for measurement of changes in isometric force. Tension was adjusted to 5 g, which is the optimal passive force for maximal contraction. Changes in force were recorded on a Grass polygraph (model 7), while vessels were incubated in 10-ml baths (Metro Scientific), which were individually thermostated (37° C.) in Krebs buffer gassed with 21% O2-5% CO2 (balance N2) in the absence of compounds used to modulate BPA protoporphyrin IX levels. Arteries were incubated for 1 h during which passive tension was adjusted to maintain 5 grams. The vessels were then depolarized with Krebs containing 123 mM KCl (High K^+) in place of NaCl, followed by re-equilibration with Krebs, prior to exposure to the experimental protocols. Following the wash with Krebs buffer after the High K^+ treatment, and a 30 min equilibration, BPA were then contracted with serotonin (5-HT) in a dose dependent manner to determine the response to this contractile agent. In some experiments, BPA were pretreated with the sGC inhibitor, 10 μM ODQ, for 15 min before contraction with serotonin. The effects of ODQ on relaxation to NO was determined by first contracting organ cultured control and ODQ-treated BPA with 1 μM 5-HT (after the initial exposure to increasing concentrations of 5-HT and a 30 min equilibration in Krebs).

[3] = system: bovine pulmonary arteries (BPA); experiment: Heme content of BPA homogenates (QuantiChrom heme assay); format: cell-based; conditions: organ culture with 100 μM ALA and/or 100 μM Fe
Method: Heme was quantified in BPA homogenates using a QuantiChrom heme assay kit purchased from BioAssay Systems, and changes in absorbance were measured in a BIOTEK scanning microplate spectrophotometer. Briefly, segments were homogenized in 20 mM MOPS+sucrose buffer and diluted to approximately 5 mg protein/ml. Homogenates were centrifuged at 2000×g for 5 min, and 50 μl of supernatant obtained were assayed for their heme content based on the manufacture's instructions, employing measurements of changes in absorbance at 400 nm. The protein content of the supernatant was measured with Biorad protein assay kit, and tissue heme levels were reported as nanomoles/mg protein.

sGC [4] = molecular target: T1, sGC (Bos taurus, UniProt P16068); experiment: sGC activity in BPA homogenates (cGMP by ELISA); format: biochemical, bovine; design: Guanylate cyclase activity of homogenates of BPA was measured by enzyme immunoassay; from tissue; host or cells: BPA (pulmonary artery rings, organ cultured) homogenate; conditions: organ culture with 100 μM ALA and/or 100 μM Fe
T1 sequence (P16068 1-619): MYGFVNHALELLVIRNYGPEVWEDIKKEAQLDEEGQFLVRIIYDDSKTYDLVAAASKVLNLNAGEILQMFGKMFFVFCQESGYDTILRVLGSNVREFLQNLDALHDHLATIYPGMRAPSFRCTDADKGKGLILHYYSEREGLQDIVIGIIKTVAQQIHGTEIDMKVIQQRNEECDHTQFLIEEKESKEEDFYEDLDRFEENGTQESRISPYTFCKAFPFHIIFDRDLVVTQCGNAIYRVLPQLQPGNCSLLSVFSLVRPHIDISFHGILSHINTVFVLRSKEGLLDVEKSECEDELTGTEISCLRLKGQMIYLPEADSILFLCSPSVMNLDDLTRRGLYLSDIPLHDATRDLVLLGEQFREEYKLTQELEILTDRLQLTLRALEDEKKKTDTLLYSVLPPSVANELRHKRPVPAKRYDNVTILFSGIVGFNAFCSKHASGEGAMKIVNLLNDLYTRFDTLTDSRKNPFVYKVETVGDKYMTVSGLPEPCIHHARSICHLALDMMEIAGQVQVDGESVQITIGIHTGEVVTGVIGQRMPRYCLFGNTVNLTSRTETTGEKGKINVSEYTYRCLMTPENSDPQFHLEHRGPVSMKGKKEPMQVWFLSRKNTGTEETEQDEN
T1 sequence (P19687 1-691 partner): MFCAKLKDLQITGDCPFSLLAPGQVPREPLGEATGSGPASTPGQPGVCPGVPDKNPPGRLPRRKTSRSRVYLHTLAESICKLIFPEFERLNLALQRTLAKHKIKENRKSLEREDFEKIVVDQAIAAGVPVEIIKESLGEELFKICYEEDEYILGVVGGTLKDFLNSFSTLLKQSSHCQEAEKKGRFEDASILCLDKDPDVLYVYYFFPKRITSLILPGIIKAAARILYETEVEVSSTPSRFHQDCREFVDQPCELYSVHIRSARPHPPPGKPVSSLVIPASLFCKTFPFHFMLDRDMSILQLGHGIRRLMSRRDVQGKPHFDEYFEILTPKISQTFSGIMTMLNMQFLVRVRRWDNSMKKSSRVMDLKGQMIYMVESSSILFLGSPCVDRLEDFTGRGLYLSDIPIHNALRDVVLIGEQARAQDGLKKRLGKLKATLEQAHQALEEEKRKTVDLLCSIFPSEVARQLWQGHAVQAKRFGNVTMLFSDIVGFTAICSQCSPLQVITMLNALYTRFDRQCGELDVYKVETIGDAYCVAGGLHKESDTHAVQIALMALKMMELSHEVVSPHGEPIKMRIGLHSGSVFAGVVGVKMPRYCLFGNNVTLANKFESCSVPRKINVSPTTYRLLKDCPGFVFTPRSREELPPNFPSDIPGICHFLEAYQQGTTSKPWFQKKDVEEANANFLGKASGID
Method: Guanylate cyclase activity of homogenates of BPA was measured by enzyme immunoassay of the amounts of cGMP generated. Briefly, BPA were pulverized in liquid nitrogen and homogenized in MOPS buffer 1:3 wt to buffer ratio at 5° C. Reaction mixture (0.2 ml final volume) contained 20 mM MOPS-KOH (pH 7.4), 0.1 mM GTP, 2 mM MgCl2, 0.3 mM of the phosphodiesterase inhibitor 3-Isobutyl-1-methylxanthine, a GTP-regenerating system consisting of 10 mM phosphocreatine and 150 U/ml creatine phosphokinase, and 0.1 ml of homogenate (11, 15), and test agents, as indicated. Assays of sGC activity were initiated by the addition of BPA homogenate. Incubations were conducted for 10 min at 37° C., and they were terminated by the addition of 0.1 ml of preheated 12 mM EDTA. This was followed by boiling the assay mixtures for 10 min and a subsequent addition of 5% trichloroacetic acid. The precipitate was removed by centrifugation and the supernatant was washed three times with water-saturated diethyl ether. Residual ether was removed by incubation at 70° C. for 5 minutes, prior to measurement of cGMP by ELISA (Cayman), as described in the manual supplied by manufacturer of the ELISA kit.

sGC [5] = molecular target: T1, sGC; conditions: reference (34), cited from earlier work
[6] = molecular target: T2, sGC purified from bovine lungs (Bos taurus, UniProt P16068); conditions: reference (34); cited from earlier work
T2 construct: host or cells: bovine lung
T2 sequence (P16068 1-619): T1 sequence (P16068 1-619)
T2 sequence (P19687 1-691 partner): T1 sequence (P19687 1-691 partner)

[7] = system: VASP serine-239 phosphorylation (cGMP-dependent protein kinase activation); experiment: Western blot of VASP serine-239 phosphorylation in BPA; format: cell-based, bovine
Method: Rings from studies on contractile function were snap-frozen in liquid nitrogen, crushed and homogenized in lysis buffer (50 mM Tris-HCl, pH 8.0, 150 mM NaCl, 1 mM EDTA, 1% Triton X-100, 0.5% sodium deoxycholate, 0.1% sodium dodecyl sulfate, 1% of a protease inhibitor cocktail (Sigma) and 1% of a phosphatase inhibitor cocktail (Sigma). The protease inhibitor cocktail included 4-(2-aminoethyl)benzenesulfonyl floride hydrocholride, aprotinin, bestatin hydrochloride, N-(trans-epoxsuccinyl)-L-leucine-4-guanidinobutylamide, leupeptine hemisulfate, pepstatin and the phosphatase inhibitor cocktail included sodium orthovandate, sodium molybdate, sodium tartarate, and imidazole. Protein concentration was determined and 30 μg of protein samples were prepared in electrophoresis sample buffer containing 3% SDS and 3% β-mercaptoethanol and were separated using a 12% gel SDS-PAGE electrophoresis. Membranes were blocked for 1 h in TBST-5% milk and incubated overnight with phospho-VASP antibodies (diluted 1:1000). Membranes were exposed to a secondary horse radish peroxidase linked antibody and visualized with an ECL kit (Amersham). The membranes were subsequently exposed to X-OMAT autoradiography paper (Kodak). Membranes were stripped with TRIS-HCl buffer with 100 mM β-mercaptoethanol at 50° C. for 30 min. Membranes were subsequently washed, blocked and detected for total VASP. Each measurement of phosphorylated VASP was normalized to the total level of VASP, and data are reported as the percent of the levels of phosphorylated VASP seen in control arteries not exposed to agents which modulate the activity of sGC. Expression of sGC was detected with β-sGC subunit antibodies (diluted 1:2000), employing anti-rabbit secondary antibodies, and a protocol where membranes were blocked for 2 h. After analyzing for sGC protein expression, blots were stripped and re-probed for the detection of α-actin protein levels, which were used for normalization of data for statistical analysis based on protein loading.

[8] = 100 μM Fe in the presence of 100 μM ALA
[9] = organ culture with 100 μM Fe alone
[10] = 10 μM ODQ on BPA organ cultured with 100 μM ALA

CCCC(=O)O[C@@H]1[C@@H](C)[C@@]2(O)[C@@H](C=C(CO)C[C@]3(O)C(=O)C(C)=C[C@@H]23)[C@@H]2C(C)(C)[C@]12OC(=O)CCC [PDBu]
superoxide detected by 5 μM lucigenin chemiluminescence (bovine airways): causes an increase in superoxide

O=S(=O)([O-])[O-].[Fe+2] [Fe, FeSO4]
protoporphyrin IX fluorescence [1, 8]: reversed the increase in protoporphyrin IX fluorescence
background fluorescence of BPA [1, 9]: did not alter the background fluorescence
force generation by 5-HT [2, 8]: reversed the force attenuating effects
force generation by 5-HT [2, 9]: did not alter force generation
BPA heme levels [3]: did not reach statistical significance
BPA homogenate sGC activity (sGC [4]): did not alter sGC activity

C=CC1=C(C)c2cc3[n-]c(cc4[n-]c(cc5nc(cc1n2)C(C)=C5C=C)c(C)c4CCC(=O)O)c(CCC(=O)O)c3C.[Fe+2] [heme]
Kd (sGC [5]; read-out: binding affinity for the binding site on sGC): ~350 nM
effect on activation of sGC by protoporphyrin IX [6]: competitive inhibitor

C=CC1=C(C)c2cc3[nH]c(cc4nc(cc5[nH]c(cc1n2)c(C)c5CCC(=O)O)C(CCC(=O)O)=C4C)c(C)c3C=C [protoporphyrin IX]
binding affinity for the binding site on sGC (sGC [5]): low nanomolar concentration range

NCCCNCCCCN(CCCN)/[N+]([O-])=N/O [spermine-NONOate]
relaxation of organ cultured BPA ([2]; 10 μM spermine-NONOate): relaxed
VASP serine-239 phosphorylation ([7]; 10 μM spermine-NONOate): increased VASP phosphorylation

O=c1onc2cnc3ccccc3n12 [ODQ, 1H-[1,2,4]oxadiazolo[4,3-α]quinoxalin-1-one]
force generation to 5-HT ([2]; 10 μM ODQ alone): did not alter
decrease in contraction to 5-HT caused by ALA [2, 10]: did not alter
relaxation to the NO donor ([2]; pretreatment with 10 μM ODQ, 10 μM spermine-NONOate): markedly attenuated relaxation
VASP serine-239 phosphorylation ([7]; 10 μM ODQ alone, appeared to decrease): did not reach statistical significance
increase in VASP serine-239 phosphorylation caused by ALA [7, 10]: did not significantly alter the increase in serine-239 VASP phosphorylation
increase in VASP serine-239 phosphorylation caused by the NO donor ([7]; 10 μM ODQ with 10 μM spermine-NONOate): attenuate the increase caused by the NO donor
